# Measurements taken from the supplement of paper PMC10307832.
# How the values were obtained:
# Assay in all cases: relative viability (nuclei count vs DMSO), 5 days (fraction); higher = more cells survive
# [1] = system: NCI-H1755
# Summary of the method: (§1)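 Relative viability was taken as the ratio of nuclei in treated wells to nuclei in vehicle wells. Lung cancer cell lines in 1536-well plates received compounds by pin tool one day after seeding, either one drug alone or a fixed anchor-drug dose plus five library-drug doses (not always all listed) in √10 steps. Nuclei were counted on 4× images after 5 days of treatment, and values are medians of duplicate plates.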
# [2] = system: NCI-H1793
# Summary of the method: as §1
# [3] = system: NCI-H1993
# Summary of the method: as §1
# [4] = system: NCI-H2347
# Summary of the method: as §1
# [5] = system: COR-L23
# Summary of the method: as §1
# [6] = system: PC-14
# Summary of the method: as §1
# [7] = system: NCI-H2009
# Summary of the method: as §1
# [8] = system: HARA
# Summary of the method: as §1
# [9] = system: NCI-H322M
# Summary of the method: as §1
# [10] = system: HOP-62
# Summary of the method: as §1
# [11] = system: NCI-H1395
# Summary of the method: as §1
# [12] = system: NCI-H358
# Summary of the method: as §1
# [13] = system: NCI-H2228
# Summary of the method: as §1
# [14] = system: NCI-H838
# Summary of the method: as §1
# [15] = system: EKVX
# Summary of the method: as §1
# [16] = system: NCI-H1355
# Summary of the method: as §1
# [17] = system: NCI-H1734
# Summary of the method: as §1
# [18] = system: COR-L 105
# Summary of the method: as §1
# [19] = system: NCI-H2342
# Summary of the method: as §1
# [20] = system: NCI-H647
# Summary of the method: as §1
# [21] = system: NCI-H2170
# Summary of the method: as §1
# [22] = system: UMC-11
# Summary of the method: as §1
# [23] = system: SK-MES-1
# Summary of the method: as §1
smiles,measurement,setting,value
C[C@@H]1CN(CC(=O)Nc2ccc3c(c2)Cc2cccc(-c4cc(=O)cc(N5CCOCC5)o4)c2S3)C[C@H](C)O1 + COc1cc2c(Oc3ccc(NC(=O)C4(C(=O)Nc5ccc(F)cc5)CC4)cc3F)ccnc2cc1OCCCN1CCOCC1 [Foretinib] (partner 0.25 µM),relative viability,[1]; first compound 0.04 µM,0.914
same,relative viability,[1]; first compound 0.1265 µM,0.887
same,relative viability,[1]; first compound 0.4 µM,0.875
same,relative viability,[1]; first compound 4 µM,0.798
same,relative viability,[2]; first compound 0.04 µM,0.556
same,relative viability,[2]; first compound 0.1265 µM,0.72
same,relative viability,[2]; first compound 0.4 µM,0.809
same,relative viability,[2]; first compound 4 µM,0.476
same,relative viability,[3]; first compound 0.04 µM,0.811
same,relative viability,[3]; first compound 0.1265 µM,0.711
same,relative viability,[3]; first compound 0.4 µM,0.646
same,relative viability,[3]; first compound 4 µM,0.707
same,relative viability,[4]; first compound 0.04 µM,0.758
same,relative viability,[4]; first compound 0.1265 µM,0.761
same,relative viability,[4]; first compound 0.4 µM,1.04
same,relative viability,[4]; first compound 4 µM,1.2
same,relative viability,[5]; first compound 0.04 µM,0.991
same,relative viability,[5]; first compound 0.1265 µM,1.05
same,relative viability,[5]; first compound 0.4 µM,1.02
same,relative viability,[5]; first compound 4 µM,0.929
same,relative viability,[6]; first compound 0.04 µM,0.94
same,relative viability,[6]; first compound 0.1265 µM,0.864
same,relative viability,[6]; first compound 0.4 µM,0.968
same,relative viability,[6]; first compound 4 µM,0.902
same,relative viability,[7]; first compound 0.04 µM,1.35
same,relative viability,[7]; first compound 0.1265 µM,1.18
same,relative viability,[7]; first compound 0.4 µM,1.15
same,relative viability,[7]; first compound 4 µM,0.967
same,relative viability,[8]; first compound 0.1265 µM,0.757
same,relative viability,[8]; first compound 0.4 µM,0.891
same,relative viability,[8]; first compound 4 µM,0.879
same,relative viability,[9]; first compound 0.04 µM,0.508
same,relative viability,[9]; first compound 0.1265 µM,0.965
same,relative viability,[9]; first compound 0.4 µM,0.979
same,relative viability,[9]; first compound 4 µM,0.874
same,relative viability,[10]; first compound 0.04 µM,0.924
same,relative viability,[10]; first compound 0.1265 µM,1.08
same,relative viability,[10]; first compound 0.4 µM,1.13
same,relative viability,[10]; first compound 4 µM,0.9
same,relative viability,[11]; first compound 0.04 µM,1.06
same,relative viability,[11]; first compound 0.1265 µM,1.07
same,relative viability,[11]; first compound 0.4 µM,0.982
same,relative viability,[11]; first compound 4 µM,0.866
same,relative viability,[12]; first compound 0.04 µM,0.547
same,relative viability,[12]; first compound 0.1265 µM,0.677
same,relative viability,[12]; first compound 0.4 µM,0.682
same,relative viability,[12]; first compound 4 µM,0.4
same,relative viability,[13]; first compound 0.04 µM,0.82
same,relative viability,[13]; first compound 0.1265 µM,0.689
same,relative viability,[13]; first compound 0.4 µM,0.726
same,relative viability,[13]; first compound 4 µM,0.816
same,relative viability,[14]; first compound 0.04 µM,0.871
same,relative viability,[14]; first compound 0.1265 µM,0.952
same,relative viability,[14]; first compound 0.4 µM,0.969
same,relative viability,[14]; first compound 4 µM,0.723
same,relative viability,[15]; first compound 0.04 µM,0.947
same,relative viability,[15]; first compound 0.1265 µM,1.16
same,relative viability,[15]; first compound 0.4 µM,0.927
same,relative viability,[15]; first compound 4 µM,0.76
same,relative viability,[16]; first compound 0.04 µM,0.95
same,relative viability,[16]; first compound 0.1265 µM,0.964
same,relative viability,[16]; first compound 0.4 µM,0.951
same,relative viability,[16]; first compound 4 µM,0.858
same,relative viability,[17]; first compound 0.04 µM,0.881
same,relative viability,[17]; first compound 0.1265 µM,0.851
same,relative viability,[17]; first compound 0.4 µM,0.789
same,relative viability,[17]; first compound 4 µM,0.976
same,relative viability,[18]; first compound 0.04 µM,1.39
same,relative viability,[18]; first compound 0.1265 µM,0.971
same,relative viability,[18]; first compound 0.4 µM,1.17
same,relative viability,[18]; first compound 4 µM,0.701
same,relative viability,[19]; first compound 0.04 µM,0.959
same,relative viability,[19]; first compound 0.1265 µM,0.95
same,relative viability,[19]; first compound 0.4 µM,0.973
same,relative viability,[19]; first compound 4 µM,0.908
same,relative viability,[20]; first compound 0.04 µM,1.34
same,relative viability,[20]; first compound 0.1265 µM,1.17
same,relative viability,[20]; first compound 0.4 µM,1.2
same,relative viability,[20]; first compound 4 µM,0.793
same,relative viability,[21]; first compound 0.04 µM,1.08
same,relative viability,[21]; first compound 0.1265 µM,0.97
same,relative viability,[21]; first compound 0.4 µM,0.648
same,relative viability,[21]; first compound 4 µM,1
same,relative viability,[22]; first compound 0.04 µM,1.1
same,relative viability,[22]; first compound 0.1265 µM,0.995
same,relative viability,[22]; first compound 0.4 µM,1.1
same,relative viability,[22]; first compound 4 µM,0.746
same,relative viability,[23]; first compound 0.04 µM,1.15
same,relative viability,[23]; first compound 0.1265 µM,0.822
same,relative viability,[23]; first compound 0.4 µM,0.76
same,relative viability,[23]; first compound 4 µM,0.746
CC(C)Oc1cc(Nc2nc(N[C@@H](C)c3ccc(F)cn3)ncc2Cl)n[nH]1 [AZ23] + COc1cc2c(Oc3ccc(NC(=O)C4(C(=O)Nc5ccc(F)cc5)CC4)cc3F)ccnc2cc1OCCCN1CCOCC1 [Foretinib] (partner 0.25 µM),relative viability,[1]; first compound 0.01 µM,0.949
same,relative viability,[1]; first compound 0.03162 µM,0.94
same,relative viability,[1]; first compound 0.3162 µM,0.958
same,relative viability,[2]; first compound 0.01 µM,0.879
same,relative viability,[2]; first compound 0.03162 µM,0.859
same,relative viability,[2]; first compound 0.3162 µM,0.713
same,relative viability,[3]; first compound 0.01 µM,0.66
same,relative viability,[3]; first compound 0.03162 µM,0.725
same,relative viability,[3]; first compound 0.3162 µM,0.753
same,relative viability,[4]; first compound 0.01 µM,0.85
same,relative viability,[4]; first compound 0.03162 µM,0.986
same,relative viability,[4]; first compound 0.3162 µM,1.15
same,relative viability,[5]; first compound 0.01 µM,1.09
same,relative viability,[5]; first compound 0.03162 µM,1.02
same,relative viability,[5]; first compound 0.3162 µM,1.11
same,relative viability,[6]; first compound 0.01 µM,1.1
same,relative viability,[6]; first compound 0.03162 µM,1
same,relative viability,[6]; first compound 0.3162 µM,1.13
same,relative viability,[7]; first compound 0.01 µM,1.23
same,relative viability,[7]; first compound 0.03162 µM,1.26
same,relative viability,[7]; first compound 0.3162 µM,1.23
same,relative viability,[8]; first compound 0.03162 µM,1.04
same,relative viability,[8]; first compound 0.3162 µM,0.783
same,relative viability,[9]; first compound 0.03162 µM,0.96
same,relative viability,[9]; first compound 0.3162 µM,1.04
same,relative viability,[10]; first compound 0.01 µM,1.33
same,relative viability,[10]; first compound 0.03162 µM,1.15
same,relative viability,[10]; first compound 0.3162 µM,1.3
same,relative viability,[11]; first compound 0.03162 µM,1.02
same,relative viability,[11]; first compound 0.3162 µM,1
same,relative viability,[12]; first compound 0.01 µM,0.786
same,relative viability,[12]; first compound 0.03162 µM,0.829
same,relative viability,[12]; first compound 0.3162 µM,0.727
same,relative viability,[13]; first compound 0.01 µM,1.06
same,relative viability,[13]; first compound 0.03162 µM,1.26
same,relative viability,[13]; first compound 0.3162 µM,0.875
same,relative viability,[14]; first compound 0.01 µM,1.24
same,relative viability,[14]; first compound 0.03162 µM,1.14
same,relative viability,[14]; first compound 0.3162 µM,0.994
same,relative viability,[15]; first compound 0.01 µM,0.782
same,relative viability,[15]; first compound 0.03162 µM,0.988
same,relative viability,[15]; first compound 0.3162 µM,0.565
same,relative viability,[16]; first compound 0.01 µM,1.21
same,relative viability,[16]; first compound 0.03162 µM,1.07
same,relative viability,[16]; first compound 0.3162 µM,1.01
same,relative viability,[17]; first compound 0.01 µM,0.803
same,relative viability,[17]; first compound 0.03162 µM,0.872
same,relative viability,[17]; first compound 0.3162 µM,0.796
same,relative viability,[18]; first compound 0.01 µM,1.07
same,relative viability,[18]; first compound 0.03162 µM,1.26
same,relative viability,[18]; first compound 0.3162 µM,0.842
same,relative viability,[19]; first compound 0.01 µM,0.974
same,relative viability,[19]; first compound 0.03162 µM,1.07
same,relative viability,[19]; first compound 0.3162 µM,1.05
same,relative viability,[20]; first compound 0.01 µM,1.24
same,relative viability,[20]; first compound 0.03162 µM,1.24
same,relative viability,[20]; first compound 0.3162 µM,1.44
same,relative viability,[21]; first compound 0.01 µM,1.16
same,relative viability,[21]; first compound 0.03162 µM,0.98
same,relative viability,[21]; first compound 0.3162 µM,0.849
same,relative viability,[22]; first compound 0.01 µM,1.08
same,relative viability,[22]; first compound 0.03162 µM,1.15
same,relative viability,[22]; first compound 0.3162 µM,0.951
same,relative viability,[23]; first compound 0.01 µM,0.761
same,relative viability,[23]; first compound 0.03162 µM,1.05
same,relative viability,[23]; first compound 0.3162 µM,0.977
